The source of these data is PMC11022737, “Targeting GRP75 with a Chlorpromazine Derivative Inhibits Endometrial Cancer Progression Through GRP75–IP3R‐Ca^2+‐AMPK Axis” (Advanced Science, 2024).

The nature of data set [1]: plasma protein binding using equilibrium dialysis. In kind it is in vitro ADME.
Source text: Plasma protein binding using equilibrium dialysis: A 96-well equilibrium dialysis device and HTD 96 a/b regenerated cellulose membrane strips with a molecular mass cutoff of 12–14 kDa were obtained from HTDialysis LLC (Gales Ferry, CT). The dialysis device was assembled following the manufacturer's instructions.
The nature of data set [2]: pharmacokinetic assay in SD rats (PO, IP, IV). In kind it is in vivo. Particulars: male, rat, plasma. Here is the method:
Three male SD rats (208–259 g, 6–8 weeks) per group were purchased from JH Laboratory Animal Co. LTD. All rats were raised under controlled temperature and humidity conditions and had free access to food and water. […] Each rat was injected with a combination solution at doses of 2, 10, and 5 mg kg^−1 for IV, PO, and IP, respectively. Blood samples collected in anticoagulant (K2EDTA)‐containing tubes at 0.25, 0.5, 1, 2, 4, 8, and 24 h after injection were centrifuged at 2000 × g at 4 °C for 5 min to obtain plasma. LC‐MS/MS analysis of samples was carried out using an ACQUITY UPLC HSS T3 1.8 µm column. The mobile phase was a mixture of phase A (0.1% formic acid in water) and phase B (0.1% formic acid in acetonitrile), which ran in gradient mode at a flow rate of 0.6 mL min^−1 at 60 °C. Mass spectra were obtained on an API6500 triple quadrupole equipped with an ESI source. Glipizide was used as an internal standard. The plasma concentrations of the compounds were analyzed, and the pharmacokinetic parameters were calculated via WinNonlin.

The test system of data set [3] is ISK cells xenograft tumors. The experiment in a line: ISK tumor xenograft in nude mice. The data set is classed as in vivo, BALB/c nude mice. The source says: All animal experiments were approved by the Committee on the Ethics of Animal Experiments of Shanghai Jiao Tong University, China (GKLW 2018–40). Female BALB/c nude mice (at least 5 weeks old) were procured from a commercial supplier (JieSiJie, Shanghai, China) through the Department of Laboratory Animal Science at Shanghai Jiaotong University School of Medicine. Mice were maintained under standard conditions and cared for according to the institutional guidelines for animal care. EC cells resuspended in PBS were mixed with Matrigel (BD Biosciences) in equal volume and then subcutaneously injected into the armpits of the nude mice. […] The dose of the compound injected into the mice was slightly adjusted following the methodology described in the previous study.^[ [7] ^] Every 2 d, the length (L) and width (W) of each tumor were measured twice using an external Vernier caliper for automatic reading, where the larger of the two measurements was defined as L and the smaller as W. The tumor volume was calculated using Equation 1, as follows: (1) V=0.52×L×W^2
HSP‐70 ELISA kits were purchased from YuBo Biology. […] Equal amounts of diluted protein supernatant were used, and the assay was conducted according to the manufacturer's instructions. The obtained absorbance values for protein levels were then transferred to in‐house data analysis software developed using the Windows Microsoft Excel platform to calculate the standard deviations for each group, and the average absorbance for each group was compared to the standardized controls. Each test group for each of the proteins of interest consisted of eight replicates. Assay‐specific controls were run with each plate to ensure optimal accuracy of the results.

In data set [4] the test system is EC cells (ISK). The data set can be described thus: MAM integrity and mitochondrial Ca2+ (TEM, confocal imaging) in EC cells. In kind it is cell-based, human. The protocol:
EC cells were fixed with 2.5% glutaraldehyde in sodium cacodylate buffer (0.1 mol L^−1, pH 7.2) at 4 °C overnight and post‐fixed for 1 h in 1% osmium tetroxide. Samples were stained for 1 h with 1% uranyl acetate in water before dehydration and embedding in the TAAB resin. Images were obtained using a transmission electron microscope.
Co‐localization analysis of the ER and mitochondria was conducted as previously described.^[ [64], [65] ^] EC cells grown on glass slides were loaded with Mito‐Tracker Red (0.3 µmol L^−1) and ER‐Tracker Green (1 µmol L^−1) at 37 °C for 30 min. Images were captured using a confocal microscope equipped with a 100× oil immersion objective (excitation at 488 and 594 nm, emission at 505–530 and >560 nm, respectively). Co‐localization of the ER and mitochondria was quantified as Manders’ co‐localization coefficient (MCC) using ImageJ software with a JACoP plugin. MCCs were calculated according to the fraction of mitochondrial pixels in contact with the ER (with a higher value representing more co‐localization). The co‐localization of Rhod‐2 (red fluorescent signal, 4 µmol L^−1) with Mito‐Tracker Green (0.3 µmol L^−1) in the live cells was performed as described above.

Data set [5] deals with ISK and KLE cells. The data set can be described thus: ATP production and α-KGDH activity in EC cells. In kind it is cell-based, human. Particulars: 10 µmol L−1. Here is the method:
The intracellular ATP levels were then checked using an enhanced ATP kit (Beyotime Biotechnology, Jiangsu, China), in accordance with the manufacturer's instructions. The entire cell population, including any floating cells, was collected, lysed, and boiled to release the ATP for the assay, and the results were compared with those from the DMSO group (%).
Intracellular α‐KGDH activity levels were measured using an α‐KGDH activity assay kit (Solarbio, Beijing, China) according to the manufacturer's instructions. Briefly, the entire cell population, including any floating cells, was collected, milled, and the absorbance measured. The α‐KGDH activity was then determined using Equation 2 as follows: (2) α−KGDH=U/10^4cell=4.962×ΔAdetermination−ΔAblank

The subject of data set [6] is ISK and KLE cells. The experiment in a line: Seahorse glycolytic rate assay (ECAR). The data set is classed as cell-based, human. Particulars: 10 µM. The protocol: The ECAR and OCR were measured using the Seahorse XF Glycolysis Stress Test Kit or Seahorse XF Cell Mito Stress Test Kit on the Seahorse XF 96 Extracellular Flux Analyzer (Seahorse Bioscience, North Billerica, MA, USA), according to the manufacturer's introductions. […] Glucose, oligomycin, and 2‐deoxy‐glucose were used to determine the ECAR values, whereas oligomycin, carbonyl cyanide‐p‐trifluoromethoxyphenylhydrazone, and rotenone were used to measure the OCR.

For data set [7], the system named is AMPK signaling in ISK and KLE cells. The data set can be described thus: Western blotting of p-AMPK and BIM. In kind it is cell-based, human. An excerpt:
EC cells were lysed in RIPA buffer (Epizyme, PC102, Ipsen Biopharmaceuticals, Cambridge, MA, USA) supplemented with a protease inhibitor cocktail. Samples were then quantified using a BCA kit (Epizyme, ZJ101), resolved by SDS‐PAGE, and blotted with primary antibodies and corresponding horseradish peroxidase‐conjugated secondary antibodies. The primary antibodies used included anti‐AMPK (1:1000 dilution), anti‐p‐AMPK (1:1000 dilution), anti‐BIM (1:1000 dilution), and anti‐GRP75 (1:1000 dilution) from Cell Signaling Technology (Beverly, MA, USA) and anti‐GAPDH (1:1500 dilution) from Yeason.

Details of data set [8]: method as in PMID 35868106. Particulars: cited from earlier work.
The subject of data set [9] is endometrial cancer organoid (ECO). The experiment in a line: anti-proliferation in endometrial cancer organoid (ECO) model. The data set is classed as cell-based. Particulars: Homo sapiens, n = 3, mean ± SD. The protocol:
ECO cultures were established as described previously.^[ [50] ^] Biopsies were cut into small pieces and extensively rinsed in phosphate‐buffered saline (PBS; HyClone, SH30256.01) containing 2% penicillin–streptomycin solution (Thermo Fisher Scientific, 10 010 023). Tissues were incubated in TrypLE (1x; Thermo Fisher Scientific, 12 604 013) supplemented with rock inhibitor for 20 min and then mechanically sheared to obtain a cell suspension. Digestion was stopped by dilution with equal amounts of DMEM/F12 and centrifuged at 1300 rpm for 5 min at 4 °C. The pellet was resuspended in Matrigel (Corning, 356 231, Corning, NY, USA), and 30 µL droplets were deposited in pre‐warmed 24‐well plates. ECOs were cultured as described previously.^[ [51] ^] For passages (performed every 10–20 d), organoids were recovered via liquefaction of the Matrigel drops with ice‐cold DMEM/F12 to ensure maximum organoid collection. Subsequently, ECOs were dissociated by repeated pipetting using TrypLE (in DMEM/F12 containing rock inhibitor), and the mixture was centrifuged at 1300 rpm. […]
EC cells were seeded into 96‐well plates at a concentration of 8 × 10^3 cells well^−1 in a 100 µL volume and cultured overnight. […] Absorbance at 450 nm was measured using a microplate reader (BioTek Synergy H1, Agilent Technologies, Santa Clara, CA, USA).

The target in data set [10] is T1, GRP75 (Homo sapiens, UniProt P38646).
T1 construct: purchased Zoonbio Biotechnology Co., Ltd. (Nanjing, China); host or cells: E. coli
The data set can be described thus: microscale thermophoresis (MST) binding assay. Particulars: His-tagged recombinant GRP75 50 nmol L−1, n = 3; read-out: K d, binding to GRP75 (MST). Here is the method: Purified GRP75 protein was obtained by Zoonbio Biotechnology Co., Ltd. (Nanjing, China). Recombinant His‐tagged GRP75 protein was labeled with RED‐tris‐NTA second generation dye solution (MO‐L018, NanoTemper Technologies), according to the manufacturer's instructions. […] All samples were diluted in 1× PBST and contained the same amount of DMSO. The K d was determined in MO. Control using the K d fit.

Data set [11] in a line: water solubility. The data set is classed as physicochemical.
Setting [12] is: IP 5 mg kg−1, read-out: AUC 0–24 h.
The mark [13] stands for this setting: IP 5 mg kg−1, read-out: AUC 24 h−∞.
The mark [14] stands for this setting: IV 2 mg kg−1, read-out: AUC 0–24 h.
[15] abbreviates: IV 2 mg kg−1, read-out: AUC 24 h−∞.
[16] abbreviates: PO 10 mg kg−1, read-out: AUC 0–24 h.
Setting [17] is: PO 10 mg kg−1, read-out: F (oral bioavailability).

Read-outs that look alike come from different tables or passages of the source.

T1 sequence (P38646 47-679): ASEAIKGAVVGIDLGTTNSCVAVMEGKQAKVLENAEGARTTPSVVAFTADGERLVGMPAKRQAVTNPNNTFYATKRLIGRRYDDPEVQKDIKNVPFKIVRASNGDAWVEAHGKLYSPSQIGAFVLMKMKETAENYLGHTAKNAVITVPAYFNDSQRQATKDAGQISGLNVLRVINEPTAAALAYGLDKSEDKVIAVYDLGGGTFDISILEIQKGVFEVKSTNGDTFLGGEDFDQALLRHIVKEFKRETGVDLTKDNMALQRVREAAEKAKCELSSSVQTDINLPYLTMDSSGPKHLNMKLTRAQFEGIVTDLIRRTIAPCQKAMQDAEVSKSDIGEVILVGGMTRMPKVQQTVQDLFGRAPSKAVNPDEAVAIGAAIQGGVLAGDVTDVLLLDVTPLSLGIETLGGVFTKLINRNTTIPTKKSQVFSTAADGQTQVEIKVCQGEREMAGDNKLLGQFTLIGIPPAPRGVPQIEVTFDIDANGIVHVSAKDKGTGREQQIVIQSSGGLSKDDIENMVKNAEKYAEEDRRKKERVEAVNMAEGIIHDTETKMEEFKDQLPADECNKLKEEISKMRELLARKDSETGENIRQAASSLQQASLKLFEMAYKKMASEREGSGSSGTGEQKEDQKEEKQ

Turning to `CN1CCN(CCCCCN2c3cc(Cl)ccc3Sc3cccnc32)CC1` [JX57], the “%Unbound” value in data set [1] stood at 0.84%. In addition, the Cmax in [2] (IP 5 mg kg−1) came to 3.04 ± 1.12 ng/mL; in [2] (PO 10 mg kg−1), 11.3 ± 4.57 ng/mL. Further, the Tmax was 0.33 ± 0.14 h in [2] (IP 5 mg kg−1) and 0.41 ± 0.14 h in data set [2] (PO 10 mg kg−1). Also, the half-life is 3.06 ± 1.03 h in data set [2] (IP 5 mg kg−1), 2.72 ± 0.9 h in data set [2] (IV 2 mg kg−1) and 4.03 ± 0.88 h in data set [2] (PO 10 mg kg−1). The results for the AUC(0-t) in [2] (setting [12]), in data set [2] (setting [14]) and in data set [2] (setting [16]) were 9.01 ± 7.03 ng·h/mL, 8.12 ± 4.13 ng·h/mL and 41.5 ± 15.7 ng·h/mL, respectively. Besides, the AUC(0-inf) is 14.2 ± 8.39 ng·h/mL in data set [2] (setting [13]); 13.9 ± 5.43 ng·h/mL in data set [2] (setting [15]); 55.7 ± 24.3 ng·h/mL in [2] (PO 10 mg kg−1, read-out: AUC 24 h−∞). Also, the bioavailability in [2] (IP 5 mg kg−1, read-out: F) was 44.4 ± 34.6%; in data set [2] (setting [17]), 94.3 ± 46.9%. Moreover, in [2] (IV 2 mg kg−1), the clearance was 2650 mL/min/kg. Moreover, in data set [3] (5 mg kg−1, n = 8), the “expression of GRP75 in xenograft tumors with ISK cells (ELISA)” value is recorded as “reduced”. The “effects on GRP75-knockdown ISK tumor versus vehicle group” value in data set [3] (GRP75-deficient ISK cells in nude mice, 5 mg kg−1 i.p. daily, n = 6) is on record as “not significantly different”. Also, the “anticancer effect in vivo on addition of the AMPK inhibitor compound C” value in [3] (JX57 5 mg kg−1 plus compound C 0.2 mg kg−1, n = 6) was “partially abolished”. In data set [4] (EC cells (ISK), 10 µmol L−1), the “ER–mitochondrial distance (TEM)” value is “significantly expanded”. Further, the “[Ca2+]m levels” value in [4] (EC cells, 10 µmol L−1, confocal Rhod-2/Mito-Tracker) is “decreased”. Moreover, the “cellular ATP levels” value in [5] is reported as “reduced”. In addition, in [5], the “α‐ketoglutarate activity” value was “reduced”. Besides, the “glycolysis rate and glycolytic capacity (ECAR)” value in data set [6] is on record as “markedly reduced”. Further, the “p‐AMPK expression and BIM expression” value in data set [7] is listed as “increased”. Besides, the extrapyramidal side effects result in [8] is on record as “minor”.

Regarding `Clc1ccc2c(c1)N(CCCCCN1CCC3(CCCCC3)CC1)c1ncccc1S2` [JX66], the IC50 in [9] came out at 6.39 ± 0.87 µM. Moreover, the Cmax in data set [2] (IP 5 mg kg−1) is 10 ± 1.49 ng/mL; in [2] (PO 10 mg kg−1), 3.8 ± 1.29 ng/mL. The Tmax in data set [2] (IP 5 mg kg−1) is 1.67 ± 0.57 h; in data set [2] (PO 10 mg kg−1), 5.5 ± 4.33 h. The half-life in data set [2] (IP 5 mg kg−1) was 10.1 ± 1.38 h; in data set [2] (IV 2 mg kg−1), 5.1 ± 1.69 h. For the same molecule, the AUC(0-t) in data set [2] (setting [12]) was 140 ± 35.3 ng·h/mL; in data set [2] (setting [14]), 144 ± 75.9 ng·h/mL; in [2] (setting [16]), 16 ± 2.65 ng·h/mL. In addition, the AUC(0-inf) stood at 170 ± 37.4 ng·h/mL in [2] (setting [13]) and 153 ± 75.9 ng·h/mL in data set [2] (setting [15]). The bioavailability in data set [2] (IP 5 mg kg−1, read-out: F) came to 42.5 ± 13%; in [2] (setting [17]) it was 2.23 ± 0.37%. Further, the clearance in data set [2] (IV 2 mg kg−1) is 265 mL/min/kg. Also, the Kd in data set [10] was found to be 37.6 µM. In addition, in data set [11], the water solubility result is recorded as “poor”. The extrapyramidal side effects entry in data set [8] was “minor”.

As for `CN(C)CCCN1c2ccccc2Sc2ccc(Cl)cc21` [CPZ, chlorpromazine], the IC50 in data set [9] turned out to be 58.2 ± 7.62 µM. In addition, in data set [1], the “% Bound (plasma protein binding rate)” value came out at 98.44% and the fraction unbound came out at 0.0156.
